Measured values: patent US11206830B2, “Herbicidal composition comprising glufosinate or a salt thereof and pyroxasulfone” (BASF SE, priority 2008, dated 2021)

Columns and labels:
Type in all cases: in vivo
[1] = test system: Alopecurus myosuroides (ALOMY); experiment: greenhouse post-emergence herbicidal activity on ALOMY; conditions: for inhibition at 6.25 g/ha: read-out: % activity 20 DAT, post-emergence, solo application, 6.25 g ai/ha
Excerpt: (§1) For the post-emergence treatment, the test plants were first grown to a height of 3 to 20 cm, depending on the plant habit, and only then treated. Here, the herbicidal compositions were suspended or emulsified in water as distribution medium and sprayed using finely distributing nozzles.
(§2) The respective herbicides B and/or safener were formulated as 10% by weight strength suspension concentrate and introduced to the spray liquor with the amount of solvent system used for applying the active compound. Herbicides A, C and/or safener were used as commercially available formulations and introduced to the spray liquor with the amount of solvent system used for applying the active compound. In the examples, the solvent used was water.
(§3) The test period extended over 21 days. During this time, the plants were tended, and their response to the treatments with active compound was evaluated.
(§4) The evaluation for the damage caused by the chemical compositions was carried out using a scale from 0 to 100%, compared to the untreated control plants. Here, 0 means no damage and 100 means complete destruction of the plants.
(§5) The value E, which is to be expected if the activity of the individual compounds is just additive, was calculated using the method of S. R. Colby (1967) “Calculating synergistic and antagonistic responses of herbicide combinations”, Weeds 15, p. 22 ff. For two component mixtures the value E was calculated by the following formula E=X+Y−(X·Y/100)
(§6) For three component mixtures the value E was calculated by the following formula E=X+Y+Z−(XY+XZ+YZ)/100+(X·YZ/10000) where X=effect in percent using herbicide A at an application rate a; • Y=effect in percent using herbicide B at an application rate b; • Z=effect in percent using herbicide C at an application rate c; • E=expected effect (in %) of A+B at application rates a+b. or • E=expected effect (in %) of A+B+C at application rates a+b+c.
(§7) If the value observed in this manner is higher than the value E calculated according to Colby, a synergistic effect is present.
(§8) Tables 1 to 12 relate to the herbicidal activity of the individual actives and of their combinations in post-emergence application assessed 20 DAT.

[2] = test system: Galium aparine (GALAP); experiment: greenhouse post-emergence herbicidal activity on GALAP; conditions: Galium aparine, 480 h
Excerpt: as §1, §2, §3, §4, §5, §6, §7, §8

[3] = test system: Chenopodium album (CHEAL); experiment: greenhouse post-emergence herbicidal activity on CHEAL
Excerpt: as §1, §2, §3, §4, §5, §6, §7, §8

[4] = test system: Lolium multiflorum (LOLMU); experiment: greenhouse post-emergence herbicidal activity on LOLMU
Excerpt: as §1, §2, §3, §4, §5, §6, §7, §8

[5] = test system: Digitaria sanguinalis (DIGSA); experiment: greenhouse post-emergence herbicidal activity on DIGSA
Excerpt: as §1, §2, §3, §4, §5, §6, §7, §8

[6] = test system: Matricaria inermis (MATIN); experiment: greenhouse post-emergence herbicidal activity on MATIN
Excerpt: as §1, §2, §3, §4, §5, §6, §7, §8

[7] = test system: Abutilon theophrasti (ABUTH); experiment: greenhouse post-emergence herbicidal activity on ABUTH
Excerpt: as §1, §2, §3, §4, §5, §6, §7, §8

[8] = test system: Sinapis arvensis (SINAR); experiment: greenhouse post-emergence herbicidal activity on SINAR; conditions: solo application, 135 g ai/ha
Excerpt: as §1, §2, §3
(§9) The evaluation for the damage caused by the chemical compositions was carried out using a scale from 0 to 100%, compared to the untreated control plants. […]
(§10) The value E, which is to be expected if the activity of the individual compounds is just additive, was calculated using the method of S. R. Colby (1967) “Calculating synergistic and antagonistic responses of herbicide combinations”, Weeds 15, p. […] For two component mixtures the value E was calculated by the following formula E=X+Y−(X·Y/100)
as §6, §7, §8

[9] = test system: Avena fatua (AVEFA); experiment: greenhouse post-emergence herbicidal activity on AVEFA; conditions: 480 h, read-out: % activity 20 DAT
Excerpt: as §1, §2, §3, §4, §5, §6, §7, §8

[10] = test system: Polygonum convolvulus (POLCO); experiment: greenhouse post-emergence herbicidal activity on POLCO; conditions: Fallopia convolvulus, 480 h, read-out: % activity 20 DAT
Excerpt: as §1, §2, §3, §4, §5, §6, §7, §8

[11] = test system: Setaria viridis (SETVI); experiment: greenhouse post-emergence herbicidal activity on SETVI; conditions: 480 h, solo application, 100 g ai/ha, read-out: % activity 20 DAT
Excerpt: as §1, §2, §3, §9, §10, §6, §7, §8

[12] = test system: Amaranthus retroflexus (AMARE); experiment: greenhouse post-emergence herbicidal activity on AMARE; conditions: 480 h, solo application, 100 g ai/ha, read-out: % activity 20 DAT
Excerpt: as §1, §2, §3, §9, §10, §6, §7, §8

[13] = Digitaria sanguinalis, 480 h, read-out: % activity 20 DAT

## COCc1cnc(C2=NC(C)(C(C)C)C(=O)N2)c(C(=O)O)c1 (centres unmarked) [imazamox]
[1]; Alopecurus myosuroides, 480 h, solo application, 10 g ai/ha, read-out: % activity 20 DAT
  inhibition at 10 g/ha: 30%
[2]; solo application, 5 g ai/ha, read-out: % activity 20 DAT
  inhibition at 5 g/ha: 20%
[2]; solo application, 10 g ai/ha, read-out: % activity 20 DAT
  inhibition at 10 g/ha: 30%
[3]; Chenopodium album, 480 h, solo application, 5 g ai/ha, read-out: % activity 20 DAT
  inhibition at 5 g/ha: 15%
[3]; Chenopodium album, 480 h, solo application, 10 g ai/ha, read-out: % activity 20 DAT
  inhibition at 10 g/ha: 30%
[4]; Lolium multiflorum, 480 h, solo application, 5 g ai/ha, read-out: % activity 20 DAT
  inhibition at 5 g/ha: 40%
[4]; Lolium multiflorum, 480 h, solo application, 10 g ai/ha, read-out: % activity 20 DAT
  inhibition at 10 g/ha: 60%
[5]; Digitaria sanguinalis, 480 h, solo application, 10 g ai/ha, read-out: % activity 20 DAT
  inhibition at 10 g/ha: 20%
[6]; Matricaria, 480 h, solo application, 5 g ai/ha, read-out: % activity 20 DAT
  inhibition at 5 g/ha: 25%
[7]; Abutilon theophrasti, 480 h, solo application, 5 g ai/ha, read-out: % activity 20 DAT
  inhibition at 5 g/ha: 50%

## COC[C@H](C)N(C(=O)CCl)c1c(C)csc1C [dimethenamid-P]
[1]; solo application, 270 g ai/ha
  % activity 20 DAT: 20%
[1]; solo application, 540 g ai/ha
  % activity 20 DAT: 30%
[8]
  % activity 20 DAT: 45%
[3]; solo application, 270 g ai/ha
  % activity 20 DAT: 20%
[4]; solo application, 135 g ai/ha
  % activity 20 DAT: 60%
[5]; solo application, 135 g ai/ha
  % activity 20 DAT: 50%
[5]; solo application, 270 g ai/ha
  % activity 20 DAT: 50%
[6]; solo application, 135 g ai/ha
  % activity 20 DAT: 0%
[6]; solo application, 270 g ai/ha
  % activity 20 DAT: 0%
[7]; solo application, 135 g ai/ha
  % activity 20 DAT: 15%
[7]; solo application, 540 g ai/ha
  % activity 20 DAT: 15%

## COc1c(Cl)ccc(Cl)c1C(=O)O [dicamba]
[1]; Alopecurus myosuroides, 480 h, solo application, 25 g ai/ha, read-out: % activity 20 DAT
  inhibition at 25 g/ha: 10%
[3]; Chenopodium album, 480 h, solo application, 50 g ai/ha, read-out: % activity 20 DAT
  inhibition at 50 g/ha: 50%
[4]; Lolium multiflorum, 480 h, solo application, 50 g ai/ha, read-out: % activity 20 DAT
  inhibition at 50 g/ha: 0%
[6]; Matricaria, 480 h, read-out: % activity 20 DAT, post-emergence, solo application, 25 g ai/ha
  inhibition at 25 g/ha: 45%
[7]; Abutilon theophrasti, 480 h, solo application, 50 g ai/ha, read-out: % activity 20 DAT
  inhibition at 50 g/ha: 50%

## C#CCN1C(=O)COc2cc(F)c(-n3c(=O)n(C)c(=S)n(C)c3=O)cc21 [Compound D]
[1]; Alopecurus myosuroides, 480 h, read-out: % activity 20 DAT, post-emergence, solo application, 3.13 g ai/ha
  inhibition at 3.13 g/ha: 30%
[1]; Alopecurus myosuroides, 480 h
  inhibition at 6.25 g/ha: 40%
[2]; read-out: % activity 20 DAT, post-emergence, solo application, 3.13 g ai/ha
  inhibition at 3.13 g/ha: 30%
[2]; read-out: % activity 20 DAT, post-emergence, solo application, 6.25 g ai/ha
  inhibition at 6.25 g/ha: 30%
[3]; Chenopodium album, 480 h, read-out: % activity 20 DAT, post-emergence, solo application, 3.13 g ai/ha
  inhibition at 3.13 g/ha: 45%
[4]; Lolium multiflorum, 480 h, read-out: % activity 20 DAT, post-emergence, solo application, 3.13 g ai/ha
  inhibition at 3.13 g/ha: 40%
[5]; [13]
  inhibition at 3.13 g/ha: 35%
[9]
  inhibition at 6.25 g/ha: 75%
[10]
  inhibition at 3.13 g/ha: 95%

## CCc1nc2c(Cl)cc(Cl)c(-c3nn(C)c(OC(F)F)c3Br)c2o1 [Compound B]
[1]; Alopecurus myosuroides, 480 h
  inhibition at 6.25 g/ha: 20%
[1]; Alopecurus myosuroides, 480 h, read-out: % activity 20 DAT, post-emergence, solo application, 12.5 g ai/ha
  inhibition at 12.5 g/ha: 35%
[3]; Chenopodium album, 480 h, read-out: % activity 20 DAT, post-emergence, solo application, 6.25 g ai/ha
  inhibition at 6.25 g/ha: 85%
[5]; [13]
  inhibition at 6.25 g/ha: 50%
[7]; Abutilon theophrasti, 480 h, read-out: % activity 20 DAT, post-emergence, solo application, 6.25 g ai/ha
  inhibition at 6.25 g/ha: 98%
[10]
  inhibition at 6.25 g/ha: 90%

## CCC(CC)Nc1c([N+](=O)[O-])cc(C)c(C)c1[N+](=O)[O-] [pendimethalin]
[1]; Alopecurus myosuroides, 480 h, solo application, 400 g ai/ha, read-out: % activity 20 DAT
  inhibition at 400 g/ha: 40%
[11]
  inhibition at 100 g/ha: 30%
[4]; Lolium multiflorum, 480 h, solo application, 200 g ai/ha, read-out: % activity 20 DAT
  inhibition at 200 g/ha: 30%
[6]; Matricaria, 480 h, solo application, 100 g ai/ha, read-out: % activity 20 DAT
  inhibition at 100 g/ha: 0%
[6]; Matricaria, 480 h, solo application, 800 g ai/ha, read-out: % activity 20 DAT
  inhibition at 800 g/ha: 0%
[12]
  inhibition at 100 g/ha: 75%
